Test results reported in US4605744A, “Imidazole derivatives” (Hoffmann-La Roche Inc., priority 1985, dated 1986).
Values after ≈ are worked out from the molar mass of the structure shown. Where a name gives a salt, the structure may show the parent alone. Read-outs that look alike come from different tables or passages of the source.

What was measured:
E. coli 257 [1] = experiment: In vitro antibacterial activity (MIC, Mueller-Hinton broth); assay type: cell-based; conditions: Escherichia coli, 257
Outline: (§1)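 Overnight cultures, diluted 10^-2, were added at 1.5 μl per well to twofold drug series (128–0.008 μg/ml) in Mueller-Hinton broth.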

E. aerogenes 83 = experiment: In vitro antibacterial activity (MIC); assay type: cell-based
Outline: as §1

E. cloacae 9295 = experiment: In vitro antibacterial activity (MIC); assay type: cell-based
Outline: as §1

K. pneumoniae 35 = experiment: In vitro antibacterial activity (MIC); assay type: cell-based
Outline: as §1

K. pneumoniae 503-964 = experiment: In vitro antibacterial activity (MIC); assay type: cell-based
Outline: as §1

K. pneumoniae HE7 [2] = experiment: In vitro antibacterial activity (MIC); assay type: cell-based; conditions: Klebsiella pneumoniae
Outline: as §1

P. aeruginosa 5700 = experiment: In vitro antibacterial activity (MIC); assay type: cell-based
Outline: as §1

P. aeruginosa 8710 [3] = experiment: In vitro antibacterial activity (MIC); assay type: cell-based
Outline: as §1

P. aeruginosa B = experiment: In vitro antibacterial activity (MIC); assay type: cell-based; conditions: Pseudomonas aeruginosa, read-out: MIC
Outline: as §1

P. aeruginosa Stone 130 = experiment: In vitro antibacterial activity (MIC); assay type: cell-based
Outline: as §1

P. mirabilis 190 = experiment: In vitro antibacterial activity (MIC); assay type: cell-based
Outline: as §1

P. rettgeri ATCC 9250 = experiment: In vitro antibacterial activity (MIC); assay type: cell-based; conditions: Providencia rettgeri
Outline: as §1

S. aureus Giorgio = experiment: In vitro antibacterial activity (MIC); assay type: cell-based; conditions: Staphylococcus aureus
Outline: as §1

S. faecalis C1 [4] = experiment: In vitro antibacterial activity (MIC); assay type: cell-based
Outline: as §1

S. marcescens S147 = experiment: In vitro antibacterial activity (MIC); assay type: cell-based; conditions: Serratia marcescens
Outline: as §1

S. marcescens S3 = experiment: In vitro antibacterial activity (MIC); assay type: cell-based; conditions: Serratia marcescens
Outline: as §1

S. marcescens SM = experiment: In vitro antibacterial activity (MIC); assay type: cell-based; conditions: Serratia marcescens
Outline: as §1

S. pyogenes 4 [5] = experiment: In vitro antibacterial activity (MIC); assay type: cell-based
Outline: as §1

E. coli 257 [6] = experiment: In vivo antibacterial activity (PD50); conditions: Escherichia coli, 257, sc
S. aureus Smith = experiment: In vivo antibacterial activity (PD50); conditions: Staphylococcus aureus, sc
S. pyogenes 4 [7] = experiment: In vivo antibacterial activity (PD50); conditions: Streptococcus pyogenes, 4, sc, sc, read-out: PD50
S. faecalis C1 [8] = experiment: In vivo antibacterial activity (PD50); conditions: sc
Procedure: (§2) The results in these Tables and the PD50 's were determined by the procedure set forth on page 160 in Beskid et al., Antimicrobial Agents and Chemotherapy, Vol. 20, No. 2 pp. 159-167 (Aug. 1981) for "in vivo studies".

P. aeruginosa 6720 = experiment: In vivo antibacterial activity (PD50); conditions: Pseudomonas aeruginosa, 6720, sc, 2 treatments
Procedure: as §2

P. aeruginosa 6719 = experiment: In vivo antibacterial activity (PD50); conditions: Pseudomonas aeruginosa, 6719, sc, challenge 2290 LD50s, 2 treatments, Table 11
Procedure: as §2

P. aeruginosa 8710 [9] = experiment: In vivo antibacterial activity (PD50); conditions: Pseudomonas aeruginosa, 8710, sc, 2 treatments
Procedure: as §2

P. aeruginosa 6799 = experiment: In vivo antibacterial activity (PD50); conditions: Pseudomonas aeruginosa, 6799, sc, sc, 2 treatments, read-out: PD50
Procedure: as §2

K. pneumoniae HE7 [10] = experiment: In vivo antibacterial activity (PD50); conditions: Klebsiella pneumoniae, HE7, sc, 2 treatments
Procedure: as §2

E. coli 387-1 = experiment: In vitro antibacterial activity (MIC); assay type: cell-based
Outline: as §1

K. pneumoniae 8357 = experiment: In vitro antibacterial activity (MIC); assay type: cell-based
Outline: as §1

S. marcescens 5805 = experiment: In vitro antibacterial activity (MIC); assay type: cell-based; conditions: Serratia marcescens, 5805, S. marcescens 5805; read-out: MIC
Outline: as §1

S. marcescens S714 = experiment: In vitro antibacterial activity (MIC); assay type: cell-based; conditions: Serratia marcescens, S714, S. marcescens S714; read-out: MIC
Outline: as §1

S. typhi P58A = experiment: In vitro antibacterial activity (MIC); assay type: cell-based; conditions: Salmonella enterica, TYPHI
Outline: as §1

[11] = Klebsiella aerogenes, 83, E. aerogenes 83, read-out: MIC
[12] = Klebsiella pneumoniae, K. pneumoniae 35, read-out: MIC
[13] = Klebsiella pneumoniae, 503964, K. pneumoniae 503-964, read-out: MIC
[14] = K. pneumoniae HE7, read-out: MIC
[15] = S. marcescens S147, read-out: MIC
[16] = S. marcescens S3, read-out: MIC
[17] = Streptococcus pyogenes, 4, S. pyogenes 4, read-out: MIC
[18] = challenge 100 LD50s, 2 treatments, Table 10
[19] = Enterobacter cloacae, 9295, E. cloacae 9295, read-out: MIC
[20] = Pseudomonas aeruginosa, 5700, P. aeruginosa 5700, read-out: MIC
[21] = Pseudomonas aeruginosa, P. aeruginosa 8710, read-out: MIC
[22] = Pseudomonas aeruginosa, STONE130, read-out: MIC
[23] = Proteus mirabilis, 190, P. mirabilis 190, read-out: MIC
[24] = ATCC9250, P. rettgeri ATCC 9250, read-out: MIC
[25] = S. aureus Giorgio, read-out: MIC
[26] = Enterococcus faecalis, S. faecalis C1, read-out: MIC

## CC1(C)S[C@@H]2[C@H](/N=C/N3CCCCCC3)C(=O)N2[C@H]1C(=O)O [Amdinocillin, amdinocillin, reference compound]
E. coli 257 [1]
  MIC: 0.125 mg/L (≈ 0.384 µM)
E. aerogenes 83; E. aerogenes 83
  MIC: 4 mg/L (≈ 12.3 µM)
E. aerogenes 83; [11]
  MIC: 8 mg/L (≈ 24.6 µM)
E. cloacae 9295; Enterobacter cloacae, 9295
  MIC: 0.125 mg/L (≈ 0.384 µM)
K. pneumoniae 35; Klebsiella pneumoniae, 35, K. pneumoniae 35
  MIC: 0.125 mg/L (≈ 0.384 µM)
K. pneumoniae 35; [12]
  MIC: 0.062 mg/L (≈ 0.191 µM)
K. pneumoniae 503-964; Klebsiella pneumoniae, 503964, K. pneumoniae 503-964
  MIC: 0.125 mg/L (≈ 0.384 µM)
K. pneumoniae 503-964; [13]
  MIC: 0.062 mg/L (≈ 0.191 µM)
K. pneumoniae HE7 [2]; HE7, K. pneumoniae HE7
  MIC: > 128 mg/L
K. pneumoniae HE7 [2]; [14]
  MIC: 64 mg/L (≈ 197 µM)
P. aeruginosa 5700; P. aeruginosa 5700
  MIC: > 128 mg/L
P. aeruginosa 5700; Pseudomonas aeruginosa, 5700, P. aeruginosa 5700
  MIC: 128 mg/L (≈ 393 µM)
P. aeruginosa 8710 [3]; P. aeruginosa 8710
  MIC: 128 mg/L (≈ 393 µM)
P. aeruginosa 8710 [3]; Pseudomonas aeruginosa, 8710, P. aeruginosa 8710
  MIC: > 128 mg/L
P. aeruginosa B
  MIC: 0.062 mg/L (≈ 0.191 µM)
P. aeruginosa Stone 130
  MIC: 128 mg/L (≈ 393 µM)
P. aeruginosa Stone 130; Pseudomonas aeruginosa, STONE130
  MIC: > 128 mg/L
P. mirabilis 190; Proteus mirabilis, 190
  MIC: 0.125 mg/L (≈ 0.384 µM)
P. rettgeri ATCC 9250; ATCC9250
  MIC: 0.125 mg/L (≈ 0.384 µM)
S. aureus Giorgio
  MIC: 32 mg/L (≈ 98.3 µM)
S. faecalis C1 [4]; Enterococcus faecalis, C1, S. faecalis C1
  MIC: > 128 mg/L
S. faecalis C1 [4]; S. faecalis C1
  MIC: 128 mg/L (≈ 393 µM)
S. marcescens S147; S147, S. marcescens S147
  MIC: 0.125 mg/L (≈ 0.384 µM)
S. marcescens S147; [15]
  MIC: 0.062 mg/L (≈ 0.191 µM)
S. marcescens S3; S3, S. marcescens S3
  MIC: 0.125 mg/L (≈ 0.384 µM)
S. marcescens S3; [16]
  MIC: 0.062 mg/L (≈ 0.191 µM)
S. marcescens SM
  MIC: 0.125 mg/L (≈ 0.384 µM)
S. marcescens SM; read-out: MIC
  MIC: 0.062 mg/L (≈ 0.191 µM)
S. pyogenes 4 [5]; S. pyogenes 4
  MIC: 2 mg/L (≈ 6.15 µM)
S. pyogenes 4 [5]; [17]
  MIC: 1 mg/L (≈ 3.07 µM)
E. coli 257 [6]; Table 9
  ED50: < 0.025 mg/kg
E. coli 257 [6]; challenge >10^4 LD50s, 1 treatment, Table 10
  ED50: < 1 mg/kg
E. coli 257 [6]; challenge >10^4 LD50s, 1 treatment, Table 11
  ED50: < 2 mg/kg
S. aureus Smith; Table 9
  ED50: 69 mg/kg
S. aureus Smith; challenge 48 LD50s, 2 treatments, Table 10
  ED50: 22 mg/kg
S. aureus Smith; challenge 70 LD50s, 2 treatments, Table 11
  ED50: 13 mg/kg
S. aureus Smith; [18]
  ED50: 12 mg/kg
S. pyogenes 4 [7]; Table 9
  ED50: 60 mg/kg
S. pyogenes 4 [7]; challenge 3.3 LD50s, 2 treatments, Table 11
  ED50: 11 mg/kg
S. pyogenes 4 [7]; [18]
  ED50: 8.1 mg/kg
S. faecalis C1 [8]; Enterococcus faecalis, C1, Table 9
  ED50: > 250 mg/kg
S. faecalis C1 [8]; challenge 10 LD50s, 1 treatment, Table 11
  PD50: > 250 mg/kg
P. aeruginosa 6720; challenge 35 LD50s, Table 11
  ED50: > 250 mg/kg
P. aeruginosa 6720; challenge 3511 LD50s, Table 10
  ED50: > 250 mg/kg
P. aeruginosa 6719
  ED50: < 20 mg/kg
P. aeruginosa 8710 [9]; challenge 10 LD50s, Table 10, read-out: PD50
  ED50: > 250 mg/kg
P. aeruginosa 8710 [9]; challenge 562 LD50s, Table 10, read-out: PD50
  ED50: > 250 mg/kg
P. aeruginosa 8710 [9]; challenge >10^4 LD50s, Table 11, read-out: PD50
  ED50: > 250 mg/kg
P. aeruginosa 6799; challenge 48 LD50s, Table 10
  ED50: 117 mg/kg
P. aeruginosa 6799; challenge 71 LD50s, Table 11
  ED50: > 250 mg/kg
K. pneumoniae HE7 [10]; challenge 750 LD50s, Table 10
  ED50: > 250 mg/kg
K. pneumoniae HE7 [10]; challenge 1000 LD50s, Table 11
  ED50: > 250 mg/kg

## CC1(C)S[C@@H]2[C@H](N=CN3CCC(Cn4ccnc4)CC3)C(=O)N2[C@H]1C(=O)O [Compound A]
E. coli 257 [1]
  MIC: 0.125 mg/L (≈ 0.319 µM)
E. aerogenes 83; [11]
  MIC: 2 mg/L (≈ 5.11 µM)
E. cloacae 9295; [19]
  MIC: 0.5 mg/L (≈ 1.28 µM)
E. coli 387-1; Escherichia coli, 3871
  MIC: 0.125 mg/L (≈ 0.319 µM)
K. pneumoniae 35; [12]
  MIC: 0.25 mg/L (≈ 0.639 µM)
K. pneumoniae 503-964; [13]
  MIC: 0.016 mg/L (≈ 0.0409 µM)
K. pneumoniae 8357; Klebsiella pneumoniae, 8357, K. pneumoniae 8357, read-out: MIC
  MIC: 0.25 mg/L (≈ 0.639 µM)
K. pneumoniae HE7 [2]; [14]
  MIC: > 128 mg/L
P. aeruginosa 5700; [20]
  MIC: 0.25 mg/L (≈ 0.639 µM)
P. aeruginosa 8710 [3]; [21]
  MIC: > 128 mg/L
P. aeruginosa B
  MIC: 0.25 mg/L (≈ 0.639 µM)
P. aeruginosa Stone 130; [22]
  MIC: > 128 mg/L
P. mirabilis 190; [23]
  MIC: 0.25 mg/L (≈ 0.639 µM)
P. rettgeri ATCC 9250; [24]
  MIC: 0.5 mg/L (≈ 1.28 µM)
S. aureus Giorgio; [25]
  MIC: 8 mg/L (≈ 20.4 µM)
S. faecalis C1 [4]; [26]
  MIC: 128 mg/L (≈ 327 µM)
S. marcescens 5805
  MIC: 1 mg/L (≈ 2.55 µM)
S. marcescens S147; [15]
  MIC: 0.25 mg/L (≈ 0.639 µM)
S. marcescens S3; [16]
  MIC: 0.25 mg/L (≈ 0.639 µM)
S. marcescens S714
  MIC: 1 mg/L (≈ 2.55 µM)
S. marcescens SM; read-out: MIC
  MIC: 0.25 mg/L (≈ 0.639 µM)
S. pyogenes 4 [5]; [17]
  MIC: 1 mg/L (≈ 2.55 µM)
S. typhi P58A
  MIC: 0.25 mg/L (≈ 0.639 µM)

## CC1(C)S[C@@H]2[C@H](N=CN3CCC(CCCn4ccnc4[N+](=O)[O-])CC3)C(=O)N2[C@H]1C(=O)O [K, [2S-(2alpha,5alpha,6beta)]-6-[[[4-[3-(2-nitro-1H-imidazol-1-yl)propyl]piperidinyl]methylene]amino]-3,3-dimethyl-7-oxo-4-thia-1-azabicyclo[3.2.0]heptane-2-carboxylic acid hydrochloride 0.66 molar hydrate]
E. coli 257 [1]
  MIC: 0.5 mg/L
E. aerogenes 83; [11]
  MIC: 8 mg/L
E. cloacae 9295; [19]
  MIC: 1 mg/L
E. coli 387-1; Escherichia coli, 3871, E. coli 387-1, read-out: MIC
  MIC: 0.5 mg/L
K. pneumoniae 35; [12]
  MIC: 0.5 mg/L
K. pneumoniae 503-964; [13]
  MIC: 0.5 mg/L
K. pneumoniae 8357; Klebsiella pneumoniae, 8357
  MIC: 2 mg/L
K. pneumoniae HE7 [2]; [14]
  MIC: 64 mg/L
P. aeruginosa 5700; [20]
  MIC: 4 mg/L
P. aeruginosa 8710 [3]; [21]
  MIC: > 128 mg/L
P. aeruginosa B
  MIC: 0.25 mg/L
P. aeruginosa Stone 130; [22]
  MIC: > 128 mg/L
P. mirabilis 190; [23]
  MIC: 0.5 mg/L
P. rettgeri ATCC 9250; [24]
  MIC: 2 mg/L
S. aureus Giorgio; [25]
  MIC: 8 mg/L
S. faecalis C1 [4]; [26]
  MIC: 128 mg/L
S. marcescens 5805
  MIC: 8 mg/L
S. marcescens S147; [15]
  MIC: 2 mg/L
S. marcescens S3; [16]
  MIC: 4 mg/L
S. marcescens S714
  MIC: 8 mg/L
S. marcescens SM; read-out: MIC
  MIC: 2 mg/L
S. pyogenes 4 [5]; [17]
  MIC: 0.5 mg/L
S. typhi P58A
  MIC: 0.5 mg/L
